Source: patent EP0729956B1, “Benzothiophene compounds, intermediates, compositions, and methods” (ELI LILLY AND COMPANY, priority 1995, dated 1996)
Counter-ions that a name gives are not always drawn. Like-named read-outs stand apart in the source and are kept apart here. Values belong to the compound of their own block, whether it stands above or below them.

Key:
ovariectomized rats [1] = test system: ovariectomized rats; parameters: species or system Sprague Dawley rats; settings: rat, in vivo, po
Source text: (§1) Seventy-five day old female Sprague Dawley rats (weight range of 200 to 225g) were obtained from Charles River Laboratories (Portage, MI). The animals were either bilaterally ovariectomized (OVX) or exposed to a Sham surgical procedure at Charles River Laboratories, and then shipped after one week. Upon arrival, they were housed in metal hanging cages in groups of 3 or 4 per cage and had ad libitum access to food (calcium content approximately 0.5%) and water for one week. Room temperature was maintained at 22.2° ± 1.7° C with a minimum relative humidity of 40%. The photoperiod in the room was 12 hours light and 12 hours dark.
(§2) After a one week acclimation period (therefore, two weeks post-OVX) daily dosing with test compound was initiated. 17a-ethynyl estradiol or the test compound were given orally, unless otherwise stated, as a suspension in 1% carboxymethylcellulose or dissolved in 20% cyclodextrin. Animals were dosed daily for 4 days. Following the dosing regimen, animals were weighed and anesthetized with a ketamine: Xylazine (2:1, V:V) mixture and a blood sample was collected by cardiac puncture. The animals were then sacrificed by asphyxiation with CO2, the uterus was removed through a midline incision, and a wet uterine weight was determined.
Uteri were kept at 4° C until time of enzymatic analysis. The uteri were then homogenized in 50 volumes of 50 mM Tris buffer (pH - 8.0) containing 0.005% Triton X-100. Upon addition of 0.01% hydrogen peroxide and 10 mM O-phenylenediamine (final concentrations) in Tris buffer, increase in absorbance was monitored for one minute at 450 nm. The presence of eosonophils in the uterus is an indication of estrogenic activity of a compound. The maximal velocity of a 15 second interval was determined over the initial, linear portion of the reaction curve.

[2] = test system: MCF-7 breast adenocarcinoma cells; assay: MCF-7 Proliferation Assay (tritiated thymidine); type: cell-based; settings: Homo sapiens, MCF7; MCF-7 cells, 48 hours with drug, tritiated thymidine pulse 4 hours
Description: MCF-7 breast adenocarcinoma cells (ATCC HTB 22) were maintained in MEM (minimal essential medium, phenol red-free, Sigma, St. Louis, MO) supplimented with 10% fetal bovine serum (FBS) (V/V), L-glutamine (2 mM), sodium pyruvate (1 mM), HEPES {(N-[2-hydroxyethyl]piperazine-N'-[2-ethanesulfonic acid]10 mM}, non-essential amino acids and bovine insulin (1 ug/mL) (maintenance medium). Ten days prior to assay, MCF-7 cells were switched to maintenance medium supplemented with 10% dextran coated charcoal stripped fetal bovine serum (DCC-FBS) assay medium) in place of 10% FBS to deplete internal stores of steroids. MCF-7 cells were removed from maintenance flasks using cell dissociation medium (Ca++/Mg++ free HBSS (phenol red-free) supplemented with 10 mM HEPES and 2 mM EDTA). Cells were washed twice with assay medium and adjusted to 80,000 cells/mL. Approximately […] (8,000 cells) were added to flat-bottom microculture wells (Costar 3596) and incubated at 37° C in a 5% CO2 humidified incubator for 48 hours to allow for cell adherence and equilibration after transfer. Serial dilutions of drugs or DMSO as a diluent control were prepared in assay medium and […] to triplicate microcultures followed by […] assay medium for a final volume of […]. After an additional 48 hours at 37° C in a 5% CO2 humidified incubator, microcultures were pulsed with tritiated thymidine (1 uCi/well) for 4 hours. Cultures were terminated by freezing at -70° C for 24 hours followed by thawing and harvesting of microcultures using a Skatron Semiautomatic Cell Harvester. Samples were counted by liquid scintillation using a Wallac BetaPlace b counter. Results in Table 4 below show the IC50 for certain compounds of the present invention.

ovariectomized rats [3] = assay: Serum cholesterol analysis (OVX rat, 4-day dosing); type: in vivo, Sprague Dawley rats; settings: Rattus norvegicus, po, 96 h, daily for 4 days, read-out: Serum Cholesterol (% decrease vs. OVX)
Source text: as §1, §2
Blood samples were allowed to clot at room temperature for 2 hours, and serum was obtained following centrifugation for 10 minutes at 3000 rpm. Serum cholesterol was determined using a Boehringer Mannheim Diagnostics high performance cholesterol assay. Briefly the cholesterol was oxidized to cholest-4-en-3-one and hydrogen peroxide. The hydrogen peroxide was then reacted with phenol and 4-aminophenazone in the presence of peroxidase to produce a p-quinone imine dye, which was read spectrophotemetrically at 500 nm. Cholesterol concentration was then calculated against a standard curve. The entire assay was automated using a Biomek Automated Workstation.

[4] = test system: ovariectomized test animals; assay: Osteoporosis Test Procedure (OVX rat, 35-day dosing, distal femur metaphysis X-ray image analysis); type: in vivo, Sprague Dawley rats; settings: OVX rats, daily for 35 days, mean ± SEM
Source text: as §1
Following the General Preparation Procedure, infra, the rats were treated daily for 35 days (6 rats per treatment group) and sacrificed by carbon dioxide asphyxiation on the 36th day. The 35 day time period was sufficient to allow maximal reduction in bone density, measured as described herein. At the time of sacrifice, the uteri were removed, dissected free of extraneous tissue, and the fluid contents were expelled before determination of wet weight in order to confirm estrogen deficiency associated with complete ovariectomy. […] The uteri were then placed in 10% neutral buffered formalin to allow for subsequent histological analysis.
The right femurs were excised and digitilized x-rays generated and analyzed by an image analysis program (NIH image) at the distal metaphysis. The proximal aspect of the tibiae from these animals were also scanned by quantitative computed tomography.
In accordance with the above procedures, compounds of the present invention and ethynyl estradiol (EE2) in 20% hydroxypropyl b-cyclodextrin were orally administered to test animals. Distal femur metaphysis data presented in Tables 2 and 3 below are the results of formula I compound treatments compared to intact and ovariectomized test animals. Results are reported as the mean ± the standard error of the mean.

- Uterine EPO (V. max) (ovariectomized rats [1]; 0.01 mg/kg): 2.1
- Uterine EPO (V. max) (ovariectomized rats [1]; 0.1 mg/kg): 2.4
- Uterine EPO (V. max) (ovariectomized rats [1]; 1 mg/kg): 3.6
- IC50 [2]: 28 pM
Compound: Oc1ccc(-c2sc3cc(O)ccc3c2Oc2ccc(OCCN3CCCCC3)cc2)cc1 [Example 19, [6-hydroxy-3-[4-[2-(1-piperidinyl)-ethoxy]phenoxy]-2-(4-hydroxyphenyl)]benzo[b]thiophene oxalate]
- Distal Femur Metaphysis (X-ray Image Analysis-Gray Score) ([4]; Table 2, oral in 20% hydroxypropyl b-cyclodextrin, dose 0.1 mg/kg, OVX control 8.1 ± 1.8, Sham 27.2 ± 6.0): 14.7 ± 1.9
- Distal Femur Metaphysis (X-ray Image Analysis-Gray Score) ([4]; Table 2, oral, dose 1.0 mg/kg, OVX control 8.1 ± 1.8, Sham 27.2 ± 6.0): 15.0 ± 3.5∗
- Distal Femur Metaphysis (X-ray Image Analysis-Gray Score) ([4]; Table 2, oral, dose 10.0 mg/kg, OVX control 8.1 ± 1.8, Sham 27.2 ± 6.0): 15.3 ± 4.0∗
- inhibition in vivo at 0.01 mg/kg (ovariectomized rats [3]): 25.1%
- inhibition in vivo at 0.1 mg/kg (ovariectomized rats [3]): 45.3%
- inhibition in vivo at 1 mg/kg (ovariectomized rats [3]): 53.6%

- Uterine EPO (V. max) (ovariectomized rats [1]; 0.01 mg/kg): 1.2
- Uterine EPO (V. max) (ovariectomized rats [1]; 0.1 mg/kg): 4.8
- Uterine EPO (V. max) (ovariectomized rats [1]; 1 mg/kg): 9.3
- IC50 [2]: 50 pM
Compound: Oc1ccc(-c2sc3cc(O)ccc3c2Oc2ccc(OCCN3CCCC3)cc2)cc1 [Example 21, [6-Hydroxy-3-[4-[2-(1-pyrolidinyl)ethoxy]phenoxy]-2-(4-hydroxyphenyl)]benzo[b]thiophene]
- inhibition in vivo at 0.01 mg/kg (ovariectomized rats [3]): 26.8%
- inhibition in vivo at 0.1 mg/kg (ovariectomized rats [3]): 47.5%
- inhibition in vivo at 1 mg/kg (ovariectomized rats [3]): 54.4%

- Uterine EPO (V. max) (ovariectomized rats [1]; 0.1 mg/kg): 12.0
- Uterine EPO (V. max) (ovariectomized rats [1]; 1 mg/kg): 17.7
- Uterine EPO (V. max) (ovariectomized rats [1]; 10 mg/kg): 4.8
- IC50 [2]: 2000 pM
Compound: COc1ccc(-c2sc3cc(OC)ccc3c2Oc2ccc(OCCN3CCCCC3)cc2)cc1 [Example 10, [6-methoxy-3-[4-[2-(1-piperidinyl)ethoxy]-phenoxy]-2-(4-methoxyphenyl)]benzo[b]thiophene]
- Distal Femur Metaphysis (X-ray Image Analysis-Gray Score) ([4]; Table 3, oral, dose 0.1 mg/kg, OVX control 6.2 ± 1.4, Sham 31.1 ± 6.3): 15.3 ± 3.0
- Distal Femur Metaphysis (X-ray Image Analysis-Gray Score) ([4]; Table 3, oral, dose 1.0 mg/kg, OVX control 6.2 ± 1.4, Sham 31.1 ± 6.3): 15.2 ± 3.7
- Distal Femur Metaphysis (X-ray Image Analysis-Gray Score) ([4]; Table 3, oral, dose 3.0 mg/kg, OVX control 6.2 ± 1.4, Sham 31.1 ± 6.3): 18.5 ± 3.2∗
- inhibition in vivo at 0.1 mg/kg (ovariectomized rats [3]): 50.2%
- inhibition in vivo at 1 mg/kg (ovariectomized rats [3]): 59%
- inhibition in vivo at 10 mg/kg (ovariectomized rats [3]): 38.9%

Continued, compound first:

Compound: Oc1ccc(-c2sc3ccccc3c2Oc2ccc(OCCN3CCCC3)cc2)cc1 [Example 3, [3-[4-[2-(1-pyrolidinyl)ethoxy]phenoxy]-2-(4-hydroxyphenyl)]benzo[b]thiophene]
- Uterine EPO (V. max) (ovariectomized rats [1]; 0.01 mg/kg): 1.8
- Uterine EPO (V. max) (ovariectomized rats [1]; 0.1 mg/kg): 4.8
- Uterine EPO (V. max) (ovariectomized rats [1]; 1 mg/kg): 5.4
- IC50 [2]: 4000 pM
- inhibition in vivo at 0.01 mg/kg (ovariectomized rats [3]): 50.6%
- inhibition in vivo at 0.1 mg/kg (ovariectomized rats [3]): 47.8%
- inhibition in vivo at 1 mg/kg (ovariectomized rats [3]): 49.2%

Compound: Oc1ccc(-c2sc3cc(O)ccc3c2Sc2ccc(OCCN3CCCCC3)cc2)cc1 [Example 53, [6-Hydroxy-3-[4-[2-(1-piperidinyl)ethoxy]-thiophenoxy]-2-(4-hydroxyphenyl)]benzo[b]thiophene]
- Uterine EPO (V. max) (ovariectomized rats [1]; 0.1 mg/kg): 0.9
- Uterine EPO (V. max) (ovariectomized rats [1]; 1 mg/kg): 1.3
- Uterine EPO (V. max) (ovariectomized rats [1]; 10 mg/kg): 4.8
- IC50 [2]: 280 pM
- inhibition in vivo at 0.1 mg/kg (ovariectomized rats [3]): 62.7%
- inhibition in vivo at 1 mg/kg (ovariectomized rats [3]): 57.5%
- inhibition in vivo at 10 mg/kg (ovariectomized rats [3]): 58.7%

Compound: CCN(CC)CCOc1ccc(Oc2c(-c3ccc(O)cc3)sc3cc(O)ccc23)cc1 [Example 23, [6-Hydroxy-3-[4-[2-(1-N,N-diethylamino)ethoxy]phenoxy]-2-(4-hydroxyphenyl)]benzo[b]thiophene]
- Uterine EPO (V. max) (ovariectomized rats [1]; 0.01 mg/kg): 3.3
- Uterine EPO (V. max) (ovariectomized rats [1]; 0.1 mg/kg): 84.3
- Uterine EPO (V. max) (ovariectomized rats [1]; 1 mg/kg): 150.6
- IC50 [2]: 80 pM
- inhibition in vivo at 0.01 mg/kg (ovariectomized rats [3]): 36.2%
- inhibition in vivo at 0.1 mg/kg (ovariectomized rats [3]): 47.2%
- inhibition in vivo at 1 mg/kg (ovariectomized rats [3]): 66.1%
